The source made the active and inactive calls. The calls are words filed in the database; no cut-off is given here.
How the values were obtained:
Format in all cases: functional
Saccharomyces cerevisiae = assay: Antifungal activity against Saccharomyces cerevisiae TP (3-2) after 24 hr by disk diffusion method; further: test concentration or dose not given here
Candida albicans = assay: Antifungal activity against Candida albicans 16231 after 24 hr by disk diffusion method; on DIZ: test concentration or dose not given here
[1] = system: Staphylococcus epidermidis; assay: Antibacterial activity against Staphylococcus epidermidis Mu 30 after 24 hr by disk diffusion method; further: test concentration or dose not given here
Pseudomonas aeruginosa = assay: Antibacterial activity against Pseudomonas aeruginosa ATCC 27853 after 24 hr by disk diffusion method; on DIZ: test concentration or dose not given here
Shigella sonnei = assay: Antibacterial activity against Shigella sonnei RSKK 877 after 24 hr by disk diffusion method; on DIZ: test concentration or dose not given here; on diameter of the inhibition zone (DIZ): test concentration or dose not given here
Bacillus cereus = assay: Antibacterial activity against Bacillus cereus RSKK 863 after 24 hr by disk diffusion method; further: test concentration or dose not given here
Staphylococcus aureus = assay: Antibacterial activity against Staphylococcus aureus ATCC 25923 after 24 hr by disk diffusion method; further: test concentration or dose not given here
Salmonella = assay: Antibacterial activity against Salmonella 21.3 after 24 hr by disk diffusion method; on DIZ: test concentration or dose not given here
Escherichia coli = assay: Antibacterial activity against Escherichia coli ATCC 35218 after 24 hr by disk diffusion method; on DIZ: test concentration or dose not given here
Bacillus subtilis = assay: Antibacterial activity against Bacillus subtilis RSKK 240 after 24 hr by disk diffusion method; further: test concentration or dose not given here

CC1(C)CC(=O)C2=C(C1)N(c1ccc(Br)cc1)C1=C(C(=O)CC(C)(C)C1)C2c1ccc(C2C3=C(CC(C)(C)CC3=O)N(c3ccc(Br)cc3)C3=C2C(=O)CC(C)(C)C3)cc1
diameter of the inhibition zone (DIZ) (Saccharomyces cerevisiae): 16 mm
diameter of the inhibition zone (DIZ) (Candida albicans): 11 mm
diameter of the inhibition zone (DIZ) [1]: 10 mm
diameter of the inhibition zone (DIZ) (Pseudomonas aeruginosa): 10 mm
diameter of the inhibition zone (DIZ) (Shigella sonnei): 12 mm
diameter of the inhibition zone (DIZ) (Bacillus cereus): inactive
diameter of the inhibition zone (DIZ) (Staphylococcus aureus): 12 mm
diameter of the inhibition zone (DIZ) (Salmonella): 10 mm
diameter of the inhibition zone (DIZ) (Escherichia coli): 10 mm
diameter of the inhibition zone (DIZ) (Bacillus subtilis): inactive

COc1cccc(N2C3=C(C(=O)CC(C)(C)C3)C(c3cccc(C4C5=C(CC(C)(C)CC5=O)N(c5cccc(OC)c5)C5=C4C(=O)CC(C)(C)C5)c3)C3=C2CC(C)(C)CC3=O)c1
diameter of the inhibition zone (DIZ) (Saccharomyces cerevisiae): inactive
diameter of the inhibition zone (DIZ) (Candida albicans): inactive
diameter of the inhibition zone (DIZ) [1]: inactive
diameter of the inhibition zone (DIZ) (Pseudomonas aeruginosa): 7 mm
diameter of the inhibition zone (DIZ) (Shigella sonnei): 12 mm
diameter of the inhibition zone (DIZ) (Bacillus cereus): 13 mm
diameter of the inhibition zone (DIZ) (Staphylococcus aureus): inactive
diameter of the inhibition zone (DIZ) (Salmonella): inactive
diameter of the inhibition zone (DIZ) (Escherichia coli): 10 mm
diameter of the inhibition zone (DIZ) (Bacillus subtilis): inactive

CC1(C)CC(=O)C2=C(C1)N(c1ccccc1C#N)C1=C(C(=O)CC(C)(C)C1)C2c1cccc(C2C3=C(CC(C)(C)CC3=O)N(c3ccccc3C#N)C3=C2C(=O)CC(C)(C)C3)c1
diameter of the inhibition zone (DIZ) (Saccharomyces cerevisiae): 14 mm
diameter of the inhibition zone (DIZ) (Candida albicans): 14 mm
diameter of the inhibition zone (DIZ) [1]: 9 mm
diameter of the inhibition zone (DIZ) (Pseudomonas aeruginosa): 9 mm
diameter of the inhibition zone (DIZ) (Shigella sonnei): 10 mm
diameter of the inhibition zone (DIZ) (Bacillus cereus): inactive
diameter of the inhibition zone (DIZ) (Staphylococcus aureus): 12 mm
diameter of the inhibition zone (DIZ) (Salmonella): 9 mm
diameter of the inhibition zone (DIZ) (Escherichia coli): 12 mm
diameter of the inhibition zone (DIZ) (Bacillus subtilis): inactive

CC1(C)CC(=O)C2=C(C1)N(c1cccc(C#N)c1)C1=C(C(=O)CC(C)(C)C1)C2c1cccc(C2C3=C(CC(C)(C)CC3=O)N(c3cccc(C#N)c3)C3=C2C(=O)CC(C)(C)C3)c1
diameter of the inhibition zone (DIZ) (Saccharomyces cerevisiae): 14 mm
diameter of the inhibition zone (DIZ) (Candida albicans): 16 mm
diameter of the inhibition zone (DIZ) [1]: 8 mm
diameter of the inhibition zone (DIZ) (Pseudomonas aeruginosa): 8 mm
diameter of the inhibition zone (DIZ) (Shigella sonnei): 9 mm
diameter of the inhibition zone (DIZ) (Bacillus cereus): inactive
diameter of the inhibition zone (DIZ) (Staphylococcus aureus): 10 mm
diameter of the inhibition zone (DIZ) (Salmonella): 10 mm
diameter of the inhibition zone (DIZ) (Escherichia coli): 13 mm
diameter of the inhibition zone (DIZ) (Bacillus subtilis): inactive

CC1(C)CC(=O)C2=C(C1)N(c1ccc(C(=O)O)cc1)C1=C(C(=O)CC(C)(C)C1)C2c1cccc(C2C3=C(CC(C)(C)CC3=O)N(c3ccc(C(=O)O)cc3)C3=C2C(=O)CC(C)(C)C3)c1
diameter of the inhibition zone (DIZ) (Saccharomyces cerevisiae): 13 mm
diameter of the inhibition zone (DIZ) (Candida albicans): 12 mm
diameter of the inhibition zone (DIZ) [1]: 11 mm
diameter of the inhibition zone (DIZ) (Pseudomonas aeruginosa): inactive
diameter of the inhibition zone (DIZ) (Shigella sonnei): 11 mm
diameter of the inhibition zone (DIZ) (Bacillus cereus): 9 mm
diameter of the inhibition zone (DIZ) (Staphylococcus aureus): inactive
diameter of the inhibition zone (DIZ) (Salmonella): 9 mm
diameter of the inhibition zone (DIZ) (Escherichia coli): 10 mm
diameter of the inhibition zone (DIZ) (Bacillus subtilis): 11 mm

N#Cc1cccc(N2C3=C(C(=O)CCC3)C(c3cccc(C4C5=C(CCCC5=O)N(c5cccc(C#N)c5)C5=C4C(=O)CCC5)c3)C3=C2CCCC3=O)c1
diameter of the inhibition zone (DIZ) (Saccharomyces cerevisiae): 17 mm
diameter of the inhibition zone (DIZ) (Candida albicans): 27 mm
diameter of the inhibition zone (DIZ) [1]: inactive
diameter of the inhibition zone (DIZ) (Pseudomonas aeruginosa): 10 mm
diameter of the inhibition zone (DIZ) (Shigella sonnei): 12 mm
diameter of the inhibition zone (DIZ) (Bacillus cereus): inactive
diameter of the inhibition zone (DIZ) (Staphylococcus aureus): 9 mm
diameter of the inhibition zone (DIZ) (Salmonella): 10 mm
diameter of the inhibition zone (DIZ) (Escherichia coli): 8 mm
diameter of the inhibition zone (DIZ) (Bacillus subtilis): inactive

GENTAMICIN
inhibition zone (IZ) (Pseudomonas aeruginosa): 20 mm
inhibition zone (IZ) (Shigella sonnei): 11 mm
inhibition zone (IZ) (Salmonella): 10 mm
inhibition zone (IZ) (Escherichia coli): 15 mm

Cc1cccc(N2C3=C(C(=O)CCC3)C(c3cccc(C4C5=C(CCCC5=O)N(c5cccc(C)n5)C5=C4C(=O)CCC5)c3)C3=C2CCCC3=O)n1
diameter of the inhibition zone (DIZ) (Saccharomyces cerevisiae): 17 mm
diameter of the inhibition zone (DIZ) (Candida albicans): 14 mm
diameter of the inhibition zone (DIZ) [1]: 8 mm
diameter of the inhibition zone (DIZ) (Pseudomonas aeruginosa): 9 mm
diameter of the inhibition zone (DIZ) (Shigella sonnei): 9 mm
diameter of the inhibition zone (DIZ) (Bacillus cereus): inactive
diameter of the inhibition zone (DIZ) (Staphylococcus aureus): 18 mm
diameter of the inhibition zone (DIZ) (Salmonella): 9 mm
diameter of the inhibition zone (DIZ) (Escherichia coli): 12 mm
diameter of the inhibition zone (DIZ) (Bacillus subtilis): inactive

CC1(C)CC(=O)C2=C(C1)N(c1ccc(Cl)cc1)C1=C(C(=O)CC(C)(C)C1)C2c1ccc(C2C3=C(CC(C)(C)CC3=O)N(c3ccc(Cl)cc3)C3=C2C(=O)CC(C)(C)C3)cc1
diameter of the inhibition zone (DIZ) (Saccharomyces cerevisiae): 14 mm
diameter of the inhibition zone (DIZ) (Candida albicans): 10 mm
diameter of the inhibition zone (DIZ) [1]: 7 mm
diameter of the inhibition zone (DIZ) (Pseudomonas aeruginosa): 9 mm
diameter of the inhibition zone (DIZ) (Shigella sonnei): 10 mm
diameter of the inhibition zone (DIZ) (Bacillus cereus): inactive
diameter of the inhibition zone (DIZ) (Staphylococcus aureus): 9 mm
diameter of the inhibition zone (DIZ) (Salmonella): 12 mm
diameter of the inhibition zone (DIZ) (Escherichia coli): 12 mm
diameter of the inhibition zone (DIZ) (Bacillus subtilis): inactive

O=C1CCCC2=C1C(c1cccc(C3C4=C(CCCC4=O)N(c4ccc(C(=O)O)cc4)C4=C3C(=O)CCC4)c1)C1=C(CCCC1=O)N2c1ccc(C(=O)O)cc1
diameter of the inhibition zone (DIZ) (Saccharomyces cerevisiae): inactive
diameter of the inhibition zone (DIZ) (Candida albicans): 10 mm
diameter of the inhibition zone (DIZ) [1]: 12 mm
diameter of the inhibition zone (DIZ) (Pseudomonas aeruginosa): 10 mm
diameter of the inhibition zone (DIZ) (Shigella sonnei): 9 mm
diameter of the inhibition zone (DIZ) (Bacillus cereus): inactive
diameter of the inhibition zone (DIZ) (Staphylococcus aureus): 11 mm
diameter of the inhibition zone (DIZ) (Salmonella): 8 mm
diameter of the inhibition zone (DIZ) (Escherichia coli): 9 mm
diameter of the inhibition zone (DIZ) (Bacillus subtilis): 8 mm

CC(=O)N1CCN(c2ccc(OCC3COC(Cn4ccnc4)(c4ccc(Cl)cc4Cl)O3)cc2)CC1 (configuration not stated) [KETOCONAZOLE]
diameter of the inhibition zone (DIZ) (Saccharomyces cerevisiae): 24 mm
diameter of the inhibition zone (DIZ) (Candida albicans): 21 mm

N#Cc1ccccc1N1C2=C(C(=O)CCC2)C(c2cccc(C3C4=C(CCCC4=O)N(c4ccccc4C#N)C4=C3C(=O)CCC4)c2)C2=C1CCCC2=O
diameter of the inhibition zone (DIZ) (Saccharomyces cerevisiae): 20 mm
diameter of the inhibition zone (DIZ) (Candida albicans): 13 mm
diameter of the inhibition zone (DIZ) [1]: 10 mm
diameter of the inhibition zone (DIZ) (Pseudomonas aeruginosa): 14 mm
diameter of the inhibition zone (DIZ) (Shigella sonnei): 10 mm
diameter of the inhibition zone (DIZ) (Bacillus cereus): inactive
diameter of the inhibition zone (DIZ) (Staphylococcus aureus): 10 mm
diameter of the inhibition zone (DIZ) (Salmonella): 11 mm
diameter of the inhibition zone (DIZ) (Escherichia coli): 8 mm
diameter of the inhibition zone (DIZ) (Bacillus subtilis): inactive

CC1(C)S[C@@H]2[C@H](NC(=O)[C@H](N)c3ccccc3)C(=O)N2[C@H]1C(=O)O [AMPICILLIN]
diameter of the inhibition zone (DIZ) (Shigella sonnei): 22 mm
diameter of the inhibition zone (DIZ) (Bacillus cereus): 20 mm
diameter of the inhibition zone (DIZ) (Staphylococcus aureus): 24 mm
diameter of the inhibition zone (DIZ) (Salmonella): 23 mm
diameter of the inhibition zone (DIZ) (Escherichia coli): 27 mm
diameter of the inhibition zone (DIZ) (Bacillus subtilis): 24 mm

COc1cccc(N2C3=C(C(=O)CCC3)C(c3cccc(C4C5=C(CCCC5=O)N(c5cccc(OC)c5)C5=C4C(=O)CCC5)c3)C3=C2CCCC3=O)c1
diameter of the inhibition zone (DIZ) (Saccharomyces cerevisiae): 11 mm
diameter of the inhibition zone (DIZ) (Candida albicans): 12 mm
diameter of the inhibition zone (DIZ) [1]: 11 mm
diameter of the inhibition zone (DIZ) (Pseudomonas aeruginosa): 9 mm
diameter of the inhibition zone (DIZ) (Shigella sonnei): 10 mm
diameter of the inhibition zone (DIZ) (Bacillus cereus): inactive
diameter of the inhibition zone (DIZ) (Staphylococcus aureus): 16 mm
diameter of the inhibition zone (DIZ) (Salmonella): 12 mm
diameter of the inhibition zone (DIZ) (Escherichia coli): 14 mm
diameter of the inhibition zone (DIZ) (Bacillus subtilis): 11 mm

COc1ccccc1N1C2=C(C(=O)CCC2)C(c2cccc(C3C4=C(CCCC4=O)N(c4ccccc4OC)C4=C3C(=O)CCC4)c2)C2=C1CCCC2=O
diameter of the inhibition zone (DIZ) (Saccharomyces cerevisiae): inactive
diameter of the inhibition zone (DIZ) (Candida albicans): inactive
diameter of the inhibition zone (DIZ) [1]: inactive
diameter of the inhibition zone (DIZ) (Pseudomonas aeruginosa): inactive
diameter of the inhibition zone (DIZ) (Shigella sonnei): inactive
diameter of the inhibition zone (DIZ) (Bacillus cereus): inactive
diameter of the inhibition zone (DIZ) (Staphylococcus aureus): inactive
diameter of the inhibition zone (DIZ) (Salmonella): inactive
diameter of the inhibition zone (DIZ) (Escherichia coli): inactive
diameter of the inhibition zone (DIZ) (Bacillus subtilis): inactive

CC1(C)CC(=O)C2=C(C1)N(c1cccc(C(=O)O)c1)C1=C(C(=O)CC(C)(C)C1)C2c1cccc(C2C3=C(CC(C)(C)CC3=O)N(c3cccc(C(=O)O)c3)C3=C2C(=O)CC(C)(C)C3)c1
diameter of the inhibition zone (DIZ) (Saccharomyces cerevisiae): 16 mm
diameter of the inhibition zone (DIZ) (Candida albicans): 16 mm
diameter of the inhibition zone (DIZ) [1]: inactive
diameter of the inhibition zone (DIZ) (Pseudomonas aeruginosa): 9 mm
diameter of the inhibition zone (DIZ) (Shigella sonnei): 10 mm
diameter of the inhibition zone (DIZ) (Bacillus cereus): 8 mm
diameter of the inhibition zone (DIZ) (Staphylococcus aureus): 10 mm
diameter of the inhibition zone (DIZ) (Salmonella): 11 mm
diameter of the inhibition zone (DIZ) (Escherichia coli): 9 mm
diameter of the inhibition zone (DIZ) (Bacillus subtilis): 9 mm

O=C1CCCC2=C1C(c1cccc(C3C4=C(CCCC4=O)N(c4cccc(C(=O)O)c4)C4=C3C(=O)CCC4)c1)C1=C(CCCC1=O)N2c1cccc(C(=O)O)c1
diameter of the inhibition zone (DIZ) (Saccharomyces cerevisiae): 11 mm
diameter of the inhibition zone (DIZ) (Candida albicans): 14 mm
diameter of the inhibition zone (DIZ) [1]: inactive
diameter of the inhibition zone (DIZ) (Pseudomonas aeruginosa): 9 mm
diameter of the inhibition zone (DIZ) (Shigella sonnei): inactive
diameter of the inhibition zone (DIZ) (Bacillus cereus): 8 mm
diameter of the inhibition zone (DIZ) (Staphylococcus aureus): inactive
diameter of the inhibition zone (DIZ) (Salmonella): 11 mm
diameter of the inhibition zone (DIZ) (Escherichia coli): 12 mm
diameter of the inhibition zone (DIZ) (Bacillus subtilis): 9 mm

COc1ccccc1N1C2=C(C(=O)CC(C)(C)C2)C(c2cccc(C3C4=C(CC(C)(C)CC4=O)N(c4ccccc4OC)C4=C3C(=O)CC(C)(C)C4)c2)C2=C1CC(C)(C)CC2=O
diameter of the inhibition zone (DIZ) (Saccharomyces cerevisiae): 14 mm
diameter of the inhibition zone (DIZ) (Candida albicans): 15 mm
diameter of the inhibition zone (DIZ) [1]: 13 mm
diameter of the inhibition zone (DIZ) (Pseudomonas aeruginosa): 10 mm
diameter of the inhibition zone (DIZ) (Shigella sonnei): 12 mm
diameter of the inhibition zone (DIZ) (Bacillus cereus): 13 mm
diameter of the inhibition zone (DIZ) (Staphylococcus aureus): 9 mm
diameter of the inhibition zone (DIZ) (Salmonella): 8 mm
diameter of the inhibition zone (DIZ) (Escherichia coli): 14 mm
diameter of the inhibition zone (DIZ) (Bacillus subtilis): 8 mm

Source: ChEMBL document CHEMBL3044663, “Synthesis and antimicrobial activities of novel bisacridine-1,8-dione derivatives” (2011)
